Test results taken from publication PMC11995724, “Antibiotic target discovery by integrated phenotypic and activity-based profiling of electrophilic fragments” (Cell chemical biology, 2025).
Where a name gives a salt, the structure may show the parent alone.

Test: in vitro
Conditions: human, hek293t cells

Structure (SMILES) | viability at 48 h, 25 µM [%]
O=C(CCl)NC(c1ccccc1)c1nccs1 (stereo not drawn) [5-M13, 2-chloro-N-[phenyl(1,3-thiazol-2-yl)methyl]acetamide] | 2.38
Cc1ccc(F)c(N2CCC(NC(=O)CCl)CC2)c1 [5-M14, 2-chloro-N-[1-(2-fluoro-5-methylphenyl)piperidin-4-yl]acetamide] | 134
CC(Cl)C(=O)NC(C)c1ccc(Cl)cc1Cl (stereo not drawn) [5-M15, 2-chloro-N-[1-(2,4-dichlorophenyl)ethyl]propanamide] | 69
Cc1cc(C)n2c(-c3c(Cl)cccc3NC(=O)CCl)nnc2n1 [5-M16, 2-chloro-N-(3-chloro-2-{5,7-dimethyl-[1,2,4]triazolo[4,3-a]pyrimidin-3-yl}phenyl)acetamide] | 1.81
O=C(CCl)N1N=C(c2ccco2)CC1c1cccc(Cl)c1 (stereo not drawn) [5-M17, 2-chloro-1-[5-(3-chlorophenyl)-3-(furan-2-yl)-4,5-dihydro-1H-pyrazol-1-yl]ethan-1-one] | 0.403
Cc1nn(C)c(C)c1C(NC(=O)CCl)C(F)(F)F (stereo not drawn) [5-M18, 2-chloro-N-[2,2,2-trifluoro-1-(1,3,5-trimethyl-1H-pyrazol-4-yl)ethyl]acetamide] | 1.44
CC(Cl)C(=O)NC1CCCc2ccccc21 (stereo not drawn) [5-M19, 2-chloro-N-(1,2,3,4-tetrahydronaphthalen-1-yl)propanamide] | 74.2
CC(=O)NC1Cc2ccccc2N(C(=O)CCl)C1 (stereo not drawn) [5-M20, N-[1-(2-chloroacetyl)-1,2,3,4-tetrahydroquinolin-3-yl]acetamide] | 1.81
COc1ccccc1CNC(=O)C(C)Cl (stereo not drawn) [5-M21, 2-chloro-N-[(2-methoxyphenyl)methyl]propanamide] | 68.7
CN(C)c1nc(N2CCOCC2)ncc1NC(=O)CCl [5-M22, 2-chloro-N-[4-(dimethylamino)-2-(morpholin-4-yl)pyrimidin-5-yl]acetamide] | 38.9
Cc1ccc(CN(Cc2c(C)noc2C)C(=O)CCl)c(C)c1 [5-N03, 2-chloro-N-[(3,5-dimethyl-1,2-oxazol-4-yl)methyl]-N-[(2,4-dimethylphenyl)methyl]acetamide] | 1.14
CC(Cl)C(=O)Nc1ccc(N(C)C)cc1 (stereo not drawn) [5-N04, 2-chloro-N-[4-(dimethylamino)phenyl]propanamide hydrochloride] | 99.3
O=C(NCc1ccco1)C1CCCN1C(=O)CCl (stereo not drawn) [5-N05, 1-(2-chloroacetyl)-N-[(furan-2-yl)methyl]pyrrolidine-2-carboxamide] | 1.39
CC(=O)Nc1ccc(NC(=O)C(C)Cl)cc1 (stereo not drawn) [5-N06, 2-chloro-N-(4-acetamidophenyl)propanamide] | 101
CN(C(=O)CCl)C1CCCCC1 [5-N07, 2-chloro-N-cyclohexyl-N-methylacetamide] | 0.964
O=C(CCl)Nc1ccc(Cl)cc1[N+](=O)[O-] [5-N08, 2-chloro-N-(4-chloro-2-nitrophenyl)acetamide] | 76.9
N#Cc1ccc2c(c1)CCN2C(=O)CCl [5-N09, 1-(2-chloroacetyl)-2,3-dihydro-1H-indole-5-carbonitrile] | 0.856
CN(C1CCCCC1)S(=O)(=O)c1ccccc1NC(=O)CCl [5-N10, 2-chloro-N-{2-[cyclohexyl(methyl)sulfamoyl]phenyl}acetamide] | 0.725
CC(Cc1ccc(Cl)s1)NC(=O)CCl (stereo not drawn) [5-N11, 2-chloro-N-[1-(5-chlorothiophen-2-yl)propan-2-yl]acetamide] | 0.992
CC(Cl)C(=O)Nc1cccc2ccccc12 (stereo not drawn) [5-N12, 2-chloro-N-(naphthalen-1-yl)propanamide] | 99.8

Structure (SMILES) | viability at 48 h, 25 µM [%]
C=CC(NC(=O)CCl)C1CCOCC1 (stereo not drawn) [5-N13, 2-chloro-N-[1-(oxan-4-yl)prop-2-en-1-yl]acetamide] | 111
COc1ccc([N+](=O)[O-])cc1NC(=O)C(C)Cl (stereo not drawn) [5-N14, 2-chloro-N-(2-methoxy-5-nitrophenyl)propanamide] | 96.3
CC(Cl)C(=O)NC(C)c1nnc(-c2cccc(F)c2)s1 (stereo not drawn) [5-N15, 2-chloro-N-{1-[5-(3-fluorophenyl)-1,3,4-thiadiazol-2-yl]ethyl}propanamide] | 98.1
O=C(CCl)N(CC1CCCO1)C1CCS(=O)(=O)C1 (stereo not drawn) [5-N16, 2-chloro-N-(1,1-dioxo-1lambda6-thiolan-3-yl)-N-[(oxolan-2-yl)methyl]acetamide] | 2.2
CC(Cl)C(=O)NC1CCc2cc(C#N)ccc21 (stereo not drawn) [5-N17, 2-chloro-N-(5-cyano-2,3-dihydro-1H-inden-1-yl)propanamide] | 105
O=C(CCl)N(Cc1ccsc1)C1CC1 [5-N18, 2-chloro-N-cyclopropyl-N-[(thiophen-3-yl)methyl]acetamide] | 1.23
CC(Cl)C(=O)NCCC1=CCCCCC1 (stereo not drawn) [5-N19, 2-chloro-N-[2-(cyclohept-1-en-1-yl)ethyl]propanamide] | 120
Cc1c(Cl)cccc1NC(=O)CNC(=O)CCl [5-N20, 2-chloro-N-{[(3-chloro-2-methylphenyl)carbamoyl]methyl}acetamide] | 1.4
CCOC(=O)c1cnn2ccc(NC(=O)C(C)Cl)cc12 (stereo not drawn) [5-N21, ethyl 5-(2-chloropropanamido)pyrazolo[1,5-a]pyridine-3-carboxylate] | 89.8
CCSc1nnc(NC(=O)CCl)s1 [5-N22, 2-chloro-N-[5-(ethylsulfanyl)-1,3,4-thiadiazol-2-yl]acetamide] | 7.36
Cc1ccc(CNC(=O)C(C)Cl)cc1 (stereo not drawn) [5-O03, 2-chloro-N-[(4-methylphenyl)methyl]propanamide] | 94.7
O=C(CCl)N1CCN(Cc2ccon2)CC1 [5-O04, 2-chloro-1-{4-[(1,2-oxazol-3-yl)methyl]piperazin-1-yl}ethan-1-one] | 104
O=C(CCl)NCCc1cccc(Cl)c1 [5-O05, 2-chloro-N-[2-(3-chlorophenyl)ethyl]acetamide] | 36.9
CC(NC(=O)CCl)c1cn(-c2ccccc2)nn1 (stereo not drawn) [5-O06, 2-chloro-N-[1-(1-phenyl-1H-1,2,3-triazol-4-yl)ethyl]acetamide] | 4.63
O=C(CCl)NC1CCN(C(=O)c2ccco2)c2ccccc21 (stereo not drawn) [5-O07, 2-chloro-N-[1-(furan-2-carbonyl)-1,2,3,4-tetrahydroquinolin-4-yl]acetamide] | 1.59
CC1CC(NC(=O)CCl)C(=O)N1c1cnn(C)c1 (stereo not drawn) [5-O08, 2-chloro-N-[5-methyl-1-(1-methyl-1H-pyrazol-4-yl)-2-oxopyrrolidin-3-yl]acetamide] | 100
O=C(CCl)NC1CCCc2cn(C3CCCC3)nc21 (stereo not drawn) [5-O09, 2-chloro-N-(2-cyclopentyl-4,5,6,7-tetrahydro-2H-indazol-7-yl)acetamide] | 20.7
C#Cc1cccc(N(Cc2cc3n(n2)CCCO3)C(=O)CCl)c1 [5-O10, 2-chloro-N-(3-ethynylphenyl)-N-({5H,6H,7H-pyrazolo[3,2-b][1,3]oxazin-2-yl}methyl)acetamide] | 0.703
COc1ccc(CNC(=O)CCl)cc1OC [5-O11, 2-chloro-N-[(3,4-dimethoxyphenyl)methyl]acetamide] | 23.8
